Laboratory results published in ChEMBL document CHEMBL3091273, “Sulphonamide 1,4-dithia-7-azaspiro[4,4]nonane derivatives as gelatinase A inhibitors” (Bioorg Med Chem, 2013).
Calls of active or inactive are those of the source. The calls are words filed in the database; no cut-off is given here.

Legend:
Aminopeptidase N = molecular target: T1, Aminopeptidase N (Sus scrofa, UniProt P15145); test: Inhibition of pig kidney microsomal APN using L-Leu-p-nitroanilide as substrate preincubated for 30 mins by UV-vis spectrophotometry
T1 sequence (P15145 whole entry): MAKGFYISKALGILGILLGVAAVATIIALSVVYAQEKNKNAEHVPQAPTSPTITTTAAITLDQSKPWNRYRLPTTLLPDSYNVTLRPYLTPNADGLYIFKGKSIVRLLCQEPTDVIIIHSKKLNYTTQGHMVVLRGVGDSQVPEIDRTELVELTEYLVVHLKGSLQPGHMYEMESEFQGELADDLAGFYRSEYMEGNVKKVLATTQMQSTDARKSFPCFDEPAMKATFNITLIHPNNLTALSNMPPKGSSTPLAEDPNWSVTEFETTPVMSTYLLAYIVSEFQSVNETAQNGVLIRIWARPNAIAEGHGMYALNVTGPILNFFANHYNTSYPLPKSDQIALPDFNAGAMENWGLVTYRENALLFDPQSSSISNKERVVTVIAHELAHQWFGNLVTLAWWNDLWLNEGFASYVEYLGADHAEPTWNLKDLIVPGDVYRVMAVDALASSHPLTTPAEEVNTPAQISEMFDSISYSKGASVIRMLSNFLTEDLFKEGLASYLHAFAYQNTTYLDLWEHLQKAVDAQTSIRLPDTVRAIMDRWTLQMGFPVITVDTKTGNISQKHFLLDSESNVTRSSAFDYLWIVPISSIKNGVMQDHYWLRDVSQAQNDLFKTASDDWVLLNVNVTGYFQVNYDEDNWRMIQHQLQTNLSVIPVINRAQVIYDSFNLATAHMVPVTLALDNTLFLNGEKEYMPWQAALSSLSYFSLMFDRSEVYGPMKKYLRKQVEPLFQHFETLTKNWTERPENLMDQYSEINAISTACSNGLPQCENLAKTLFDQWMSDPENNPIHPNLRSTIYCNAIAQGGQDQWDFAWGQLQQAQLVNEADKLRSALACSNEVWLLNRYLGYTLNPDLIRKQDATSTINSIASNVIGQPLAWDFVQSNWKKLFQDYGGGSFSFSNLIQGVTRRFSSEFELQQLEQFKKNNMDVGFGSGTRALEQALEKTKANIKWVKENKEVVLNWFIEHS

[1] = molecular target: 72 kDa type IV collagenase (Homo sapiens, UniProt P08253); test: Inhibition of gelatinase A (unknown origin) after 30 mins by spectrophotometry
Chain of 72 kDa type IV collagenase (P08253 whole entry): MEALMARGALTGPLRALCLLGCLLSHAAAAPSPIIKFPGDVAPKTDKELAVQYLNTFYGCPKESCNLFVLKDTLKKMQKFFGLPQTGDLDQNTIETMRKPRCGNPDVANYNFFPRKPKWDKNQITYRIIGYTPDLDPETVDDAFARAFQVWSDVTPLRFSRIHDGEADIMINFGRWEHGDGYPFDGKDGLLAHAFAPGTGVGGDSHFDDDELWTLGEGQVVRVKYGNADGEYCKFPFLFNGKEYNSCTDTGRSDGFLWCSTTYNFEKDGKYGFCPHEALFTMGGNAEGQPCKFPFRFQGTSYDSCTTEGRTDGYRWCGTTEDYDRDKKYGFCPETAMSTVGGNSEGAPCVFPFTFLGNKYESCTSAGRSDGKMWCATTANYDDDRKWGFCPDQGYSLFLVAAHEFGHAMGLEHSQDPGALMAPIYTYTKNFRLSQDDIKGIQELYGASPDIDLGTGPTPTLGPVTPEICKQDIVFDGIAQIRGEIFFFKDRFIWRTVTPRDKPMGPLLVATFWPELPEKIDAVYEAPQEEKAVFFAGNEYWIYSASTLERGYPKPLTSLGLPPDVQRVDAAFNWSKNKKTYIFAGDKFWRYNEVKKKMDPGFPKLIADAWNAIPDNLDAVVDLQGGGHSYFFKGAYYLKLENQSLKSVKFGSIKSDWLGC

Mus musculus = test: Toxicity in […] cells xenografted Kunming mouse assessed as change in body weight at 50 mg/kg, po administered 6 days a week for two consecutive weeks (reference value: 26.03 +/- 5.04 grams); format: organism-based; design: dose 50 mg/kg, route oral; details: in vivo, 144 h
H22 [2] = test: Antimetastatic activity in […] cells xenografted Kunming mouse assessed as lung weight at 50 mg/kg, po administered 6 days a week for two consecutive weeks (reference value: 0.223 +/- 0.067 grams); format: functional
H22 [3] = test: Antimetastatic activity in […] cells xenografted Kunming mouse assessed as inhibition of tumor nodules formation at 50 mg/kg, po administered 6 days a week for two consecutive weeks; format: functional; details: H22, 144 h
K562 = test: Antiproliferative activity against human K562 cells after 48 hrs by MTT assay; format: functional, cell-based
SK-OV-3 = test: Antiproliferative activity against human SKOV3 cells after 48 hrs by MTT assay; format: functional, cell-based; details: SK-OV-3, 48 h
HL-60 = test: Antiproliferative activity against human HL60 cells after 48 hrs by MTT assay; format: functional, cell-based

Compound	IC50 (Aminopeptidase N)	IC50 [1] [µM]	also measured
O=C(Cc1ccccc1)NNC(=O)[C@@H]1CC2(CN1S(=O)(=O)c1ccccc1)SCCS2	Not Active	5.44	
O=C(NO)[C@@H]1CC2(CN1S(=O)(=O)c1ccccc1)SCCS2	Not Active	0.877	
COc1ccc(S(=O)(=O)N2CC3(C[C@H]2C(=O)NO)SCCS3)cc1	Not Active	0.516	
COC(=O)[C@@H]1CC2(CN1S(=O)(=O)c1ccccc1)SCCS2	Not Active	3.09	
COC(=O)[C@@H]1CC2(CN1S(=O)(=O)c1ccc(C)cc1)SCCS2	Not Active	0.878	
O=C(O)[C@@H]1CC2(CN1S(=O)(=O)c1ccccc1)SCCS2	Not Active	28.2	
COC(=O)[C@@H]1CC2(CN1S(=O)(=O)c1ccc([N+](=O)[O-])cc1)SCCS2	Not Active	77.9	
Cc1ccc(S(=O)(=O)N2CC3(C[C@H]2C(=O)NNC(=O)Cc2ccccc2)SCCS3)cc1	Not Active	0.679	Activity (Mus musculus): 27.9 g; Activity (H22 [2]): 0.27 g; inhibition in vivo at 50 mg/kg (H22 [3]): 34.3%; Activity (K562): inactive; IC50 (SK-OV-3): 150 µM; Activity (HL-60): inactive
CCOC(=O)CNC(=O)[C@@H]1CC2(CN1S(=O)(=O)c1ccc(C)cc1)SCCS2	Not Active	0.53	
COc1ccc(S(=O)(=O)N2CC3(C[C@H]2C(=O)NNC(=O)Cc2ccccc2)SCCS3)cc1	Not Active	0.386	
COc1ccc(/C=C/C(=O)N2CC(NC(=O)c3cccnc3)CC2C(=O)NO)cc1OC (configuration not stated)	Not Active	1.02	
COC(=O)[C@@H]1CC2(CN1S(=O)(=O)c1ccc(OC)cc1)SCCS2	Not Active	7.48	
Cc1ccc(S(=O)(=O)N2CC3(C[C@H]2C(=O)NO)SCCS3)cc1	Not Active	0.678	
O=C(Cc1ccccc1)NNC(=O)[C@@H]1CC2(CN1S(=O)(=O)c1ccc([N+](=O)[O-])cc1)SCCS2	Not Active	1.8	
Cc1ccc(S(=O)(=O)N2CC3(C[C@H]2C(=O)NN)SCCS3)cc1	Not Active	429	
O=C(NO)[C@@H]1CC2(CN1S(=O)(=O)c1ccc([N+](=O)[O-])cc1)SCCS2	Not Active	0.786	
NNC(=O)[C@@H]1CC2(CN1S(=O)(=O)c1ccccc1)SCCS2	Not Active	6.56	
CCOC(=O)CNC(=O)[C@@H]1CC2(CN1S(=O)(=O)c1ccc([N+](=O)[O-])cc1)SCCS2	Not Active	0.325	
COc1ccc(S(=O)(=O)N2CC3(C[C@H]2C(=O)O)SCCS3)cc1	Not Active	9.48	
NNC(=O)[C@@H]1CC2(CN1S(=O)(=O)c1ccc([N+](=O)[O-])cc1)SCCS2	Not Active	20.6	
COc1ccc(S(=O)(=O)N2CC3(C[C@H]2C(=O)NN)SCCS3)cc1	Not Active	10.8	
Cc1ccc(S(=O)(=O)N2CC3(C[C@H]2C(=O)O)SCCS3)cc1	Not Active	2.78	
CCOC(=O)CNC(=O)[C@@H]1CC2(CN1S(=O)(=O)c1ccccc1)SCCS2	Not Active	0.678	
O=C(O)[C@@H]1CC2(CN1S(=O)(=O)c1ccc([N+](=O)[O-])cc1)SCCS2	Not Active	0.835	Activity (Mus musculus): 25.59 g; Activity (H22 [2]): 0.288 g; inhibition in vivo at 50 mg/kg (H22 [3]): 26.3%; Activity (K562): inactive; IC50 (SK-OV-3): 210 µM; Activity (HL-60): inactive
CCOC(=O)CNC(=O)[C@@H]1CC2(CN1S(=O)(=O)c1ccc(OC)cc1)SCCS2	Not Active	0.325	
